Assay results taken from patent publication US10206902B2, “Mono- or di-substituted indoles as dengue viral replication inhibitors” (priority 2014, dated 2019).

Key:
Assay type in all cases: cell-based
DENV-3 strain H87 = experiment: Tetravalent RT-qPCR assay Protocol A, serotype 3; conditions: Dengue virus, DENV3, 72 h, RT-qPCR serotype 3 H87, Vero cells, day 3
Protocol: (§1) The antiviral activity of the compounds of the invention was tested against DENV-1 strain TC974#666 (NCPV), DENV-2 strain 16681, DENV-3 strain H87 (NCPV) and DENV-4 strains H241 (NCPV) and EDEN (SG/06K2270DK1/2005; GenBank accession number QG398256) in a RT-qPCR assay. Therefore, Vero cells were infected with either DENV-1, or -2, or -3, or -4 in the presence or absence of test compounds. At day 3 post-infection, the cells were lysed and cell lysates were used to prepare cDNA of both a viral target (the 3′UTR of DENV; table 2) and a cellular reference gene (β-actin, table 2). Subsequently, a duplex real time PCR was performed on a Lightcycler480 instrument. The generated Cp value is inversely proportional to the amount of RNA expression of these targets. Inhibition of DENV replication by a test compound result in a shift of Cp's for the 3′UTR gene. On the other hand, if a test compound is toxic to the cells, a similar effect on β-actin expression will be observed. The comparative ΔΔCp method is used to calculate EC50, which is based on the relative gene expression of the target gene (3′UTR) normalized with the cellular housekeeping gene (β-actin). In addition, CC50 values were determined based on the Cp values acquired for the housekeeping gene β-actin.
(§2) The culture medium consisted of minimal essential medium supplemented with 2% of heat-inactivated fetal calf serum, 0.04% gentamycin (50 mg/mL) and 2 mM of L-glutamine. Vero cells, obtained from ECACC, were suspended in culture medium and 75 μL/well was added in 96-well plates (10000 cells/well), which already contain the antiviral compounds. Typically, these plates contain a 4-fold serial dilution of 9 dilution steps of the test compound at 200 times the final concentration in 100% DMSO (500 nL; final concentration range: 25 μM-0.00038 μM). In addition, each plate contains wells which are assigned as virus controls (containing cells and virus in the absence of compound) and cell controls (containing cells in the absence of virus and compound). Once the cells were added in the plates, the plates were incubated in a fully humidified incubator (37° C., 5% CO2) until the next day. Then, DENV-1 strain TC974#666, DENV-2 strain 16681, DENV-3 strain H87 or DENV-4 strains H241 or EDEN were added. […] In parallel, 25 μL of culture medium was added to the cell controls. Next, the plates were incubated for 3 days in a fully humidified incubator (37° C., 5% CO2). After 3 days, the supernatant was removed from the wells and the cells were washed twice with ice-cold PBS (˜100 μL). The cell pellets within the 96-well plates were stored at −80° C. for at least 1 day. Next, RNA was extracted using the Cells-to-CT™ lysis kit, according to the manufacture's guideline (Applied Biosystems). The cell lysates can be stored at −80° C. or immediately used in the reverse transcription step. In preparation of the reverse transcription step, mix A (table 3A) was prepared and 7.57 μL/well was dispensed in a 96-well plate. After addition of 5 μL of the cell lysates, a five minute denaturation step at 75° C. was performed (table 3B). Afterwards, 7.43 μL of mix B was added (table 3C) and the reverse transcription step was initiated (table 3D) to generate cDNA.
(§3) Finally, a RT-qPCR mix was prepared, mix C (table 4A), dispensed in 96-well LightCycler qPCR plates to which 3 μL of cDNA was added and the qPCR was performed according to the conditions in table 4B on a LightCycler 480. Using the LightCycler software and an in-house LIMS system, dose response curves for each compound were calculated and the half maximal effective concentration (EC50) and the half maximal cytotoxic concentration (CO50) were determined (Tables 6-9).

DENV-4 strain H241 = experiment: Tetravalent RT-qPCR assay Protocol A, serotype 4 H241; conditions: Dengue virus, DENV4, 72 h, RT-qPCR serotype 4 H241, Vero cells, day 3
Protocol: as §1, §2, §3

DENV-2 NGC-Tongalike = experiment: Tetravalent RT-qPCR assay Protocol B, serotype 2; conditions: Dengue virus, DENV2, Vero, 96 h
Protocol: (§4) Vero cells (4×10^4) were seeded in 96-well plates. […] Following a 2 hour incubation period, the cell monolayer was washed 3 times with assay medium to remove residual, non-adsorbed virus and cultures were further incubated for either 4 days (DENV-2 NGC-Tongalike) or 7 days (DENV-1 Djibouti strain D1/H/IMTSSA/98/606, DENV-3 strain H87 prototype, DENV-4 strain H241′) in the presence of the inhibitor. Supernatant was harvested and viral RNA load was determined by real-time quantitative RT-PCR. The 50% effective concentration (EC50), which is defined as the compound concentration that is required to inhibit viral RNA replication by 50%, was determined using logarithmic interpolation (Tables 7 and 8). RNA was isolated from 100 μL supernatant with the NucleoSpin 96 Virus kit (Filter Service, Duren, Germany) as described by the manufacturer. The sequences of the TaqMan primers (DENV-For, DENV-Rev; Table 5) and TaqMan probes (DENV-Probe Table 5) were selected from non-structural gene 3 (NS3) or NS5, of the respective flaviviruses using Primer Express software (version 2.0; Applied Biosystems, Lennik, Belgium). The TaqMan probe was fluorescently labelled with 6-carboxyfluorescein (FAM) at the 5′ end as the reporter dye, and with minor groove binder (MGB) at the 3′ end as the quencher (Table 5). One-step, quantitative RT-PCR was performed in a total volume of 25 μL, containing 13.9375 μL H2O, 6.25 μL master mix (Eurogentec, Seraing, Belgium), 0.375 μL forward primer, 0.375 μL reverse primer, 1 μL probe, 0.0625 μL reverse transcriptase (Eurogentec) and 3 μL sample. RT-PCR was performed using the ABI 7500 Fast Real-Time PCR System (Applied Biosystems, Branchburg, N.J., USA) using the following conditions: 30 min at 48° C. and 10 min at 95° C., followed by 40 cycles of 15 s at 95° C. and 1 min at 60° C. The data was analyzed using the ABI PRISM 7500 SDS software (version 1.3.1; Applied Biosystems). For absolute quantification, standard curves were generated using 10-fold dilutions of template preparations of known concentrations.

DENV-1 strain TC974#666 = experiment: Tetravalent RT-qPCR assay Protocol A, serotype 1; conditions: Dengue virus, DENV1, 72 h, RT-qPCR serotype 1 TC974#666, Vero cells, day 3
Protocol: as §1, §2, §3

[1] = tested on: DENV-1 Djibouti strain D1/H/IMTSSA/98/606; experiment: Tetravalent RT-qPCR assay Protocol B, serotype 1; conditions: Dengue virus, DENV1, Vero, 168 h
Protocol: as §4

| SMILES | EC50 (DENV-3 strain H87) [µM] | EC50 (DENV-4 strain H241) [µM] | EC50 (DENV-2 NGC-Tongalike) [µM] | EC50 (DENV-1 strain TC974#666) [µM] | EC50 [1] [µM] |
| --- | --- | --- | --- | --- | --- |
| COc1cc(NC(C(=O)c2c[nH]c3cc(F)ccc23)c2ccc(F)cc2OC)cc(OCCO)c1 (single isomer, unassigned) [Compound 1A, 1-(6-fluoro-1H-indol-3-yl)-2-(4-fluoro-2-methoxyphenyl)-2-((3-(2-hydroxyethoxy)-5-methoxyphenyl)amino)ethanone] | 0.12 | 0.48 | 0.001 | 0.018 | 0.04 |
| COc1cc(NC(C(=O)c2c[nH]c3c(C)c(OC)ccc23)c2ccc(F)cc2OC)cc(OCCO)c1 (single isomer, unassigned) [Compound 11A, 2-(4-fluoro-2-methoxyphenyl)-2-((3-(2-hydroxyethoxy)-5-methoxyphenyl)amino)-1-(6-methoxy-7-methyl-1H-indol-3-yl)ethanone] | 0.085 | 0.35 | 0.00068 | 0.02 | 0.023 |
| COc1cc(NC(C(=O)c2c[nH]c3cc(Cl)ccc23)c2ccc(F)cc2OC)cc(OCCO)c1 (single isomer, unassigned) [Compound 4A, 1-(6-chloro-1H-indol-3-yl)-2-(4-fluoro-2-methoxyphenyl)-2-((3-(2-hydroxyethoxy)-5-methoxyphenyl)amino)ethanone] | 0.14 | 0.4 | < 0.00029 | 0.02 | 0.027 |
| COc1cc(NC(C(=O)c2c[nH]c3c(F)cc(C)cc23)c2ccc(F)cc2OC)cc(OCCO)c1 (single isomer, unassigned) [Compound 12B, 2-(4-fluoro-2-methoxyphenyl)-1-(7-fluoro-5-methyl-1H-indol-3-yl)-2-((3-(2-hydroxyethoxy)-5-methoxyphenyl)amino)ethanone] | 0.27 | 0.29 | 0.0017 | 0.02 | 0.096 |
| COc1cc(NC(C(=O)c2c[nH]c3c(C)cc(F)cc23)c2ccc(F)cc2OC)cc(OCCO)c1 (single isomer, unassigned) [Compound 9B, 2-(4-fluoro-2-methoxyphenyl)-1-(5-fluoro-7-methyl-1H-indol-3-yl)-2-((3-(2-hydroxyethoxy)-5-methoxyphenyl)amino)ethanone] | 0.19 | 0.39 | 0.0008 | 0.019 | 0.042 |
| COc1cc(NC(C(=O)c2c[nH]c3c(Cl)c(OC)ccc23)c2ccc(F)cc2OC)cc(OCCO)c1 (single isomer, unassigned) [Compound 8A, 1-(7-chloro-6-methoxy-1H-indol-3-yl)-2-(4-fluoro-2-methoxyphenyl)-2-((3-(2-hydroxyethoxy)-5-methoxyphenyl)amino)ethanone] | 0.2 | 0.52 | < 0.00024 | 0.032 | 0.049 |
| COc1cc(NC(C(=O)c2c[nH]c3cc(OC)c(F)cc23)c2ccc(F)cc2OC)cc(OCCO)c1 (single isomer, unassigned) [Compound 7A, 2-(4-fluoro-2-methoxyphenyl)-1-(5-fluoro-6-methoxy-1H-indol-3-yl)-2-((3-(2-hydroxyethoxy)-5-methoxyphenyl)amino)ethanone] | 0.19 | 0.47 | 0.0016 | 0.029 | 0.055 |
| COc1cc(NC(C(=O)c2c[nH]c3cc(F)c(F)cc23)c2ccc(F)cc2OC)cc(OCCO)c1 (single isomer, unassigned) [Compound 10B, 1-(5,6-difluoro-1H-indol-3-yl)-2-(4-fluoro-2-methoxy-phenyl)-2-((3-(2-hydroxyethoxy)-5-methoxyphenyl)amino)ethanone] | 0.13 | 0.39 | 0.0016 | 0.016 | 0.052 |
| COc1cc(NC(C(=O)c2c[nH]c3cc(OC)c(C)cc23)c2ccc(F)cc2OC)cc(OCCO)c1 (single isomer, unassigned) [Compound 6A, 2-(4-fluoro-2-methoxyphenyl)-2-((3-(2-hydroxyethoxy)-5-methoxyphenyl)amino)-1-(6-methoxy-5-methyl-1H-indol-3-yl)ethanone] | 0.13 | 0.2 | < 0.00035 | 0.016 | 0.021 |
| COc1cc(NC(C(=O)c2c[nH]c3c(F)c(F)ccc23)c2ccc(F)cc2OC)cc(OCCO)c1 (single isomer, unassigned) [Compound 5B, 1-(6,7-difluoro-1H-indol-3-yl)-2-(4-fluoro-2-methoxyphenyl)-2-((3-(2-hydroxyethoxy)-5-methoxyphenyl)amino)ethanone] | 0.19 | 0.45 | 0.00044 | 0.027 | 0.065 |
| COc1cc(NC(C(=O)c2c[nH]c3c(C)c(Cl)ccc23)c2ccc(F)cc2OC)cc(OCCO)c1 (single isomer, unassigned) [Compound 3A, 1-(6-chloro-7-methyl-1H-indol-3-yl)-2-(4-fluoro-2-methoxyphenyl)-2-((3-(2-hydroxyethoxy)-5-methoxyphenyl)amino)ethanone] | 0.088 | 0.24 | < 0.00028 | 0.016 | 0.045 |
| COc1cc(NC(C(=O)c2c[nH]c3c(C)c(F)ccc23)c2ccc(F)cc2OC)cc(OCCO)c1 (single isomer, unassigned) [Compound 2B, 2-(4-fluoro-2-methoxyphenyl)-1-(6-fluoro-7-methyl-1H-indol-3-yl)-2-((3-(2-hydroxyethoxy)-5-methoxyphenyl)amino)ethanone] | 0.11 | 0.32 | 0.00081 | 0.013 | 0.041 |
